In ChEMBL document CHEMBL3817730, “Design, synthesis and antimetastatic evaluation of 1-benzothiazolylphenylbenzotriazoles for photodynamic therapy in oral cancer cells” (Medchemcomm, 2016):
Activity calls are given as the source filed them. The calls are words filed in the database; no cut-off is given here.

Key:
[1] = Cytotoxicity against human Ca9-22 cells assessed as cell survival at 5 uM preincubated for 4 hrs followed by 1 Jcm'-2 UVA irradiation measured after 24 hrs by MTT assay relative to control; format: cell-based; conditions: read-out: Survival
Ca9-22 [2] = experiment: Anti-metastatic activity against human Ca9-22 cells assessed as inhibition of cell migration at 2 uM preincubated for 2 hrs followed by 0.5 Jcm'-2 UVA irradiation measured after 16 hrs by wound healing assay relative to control; format: functional; conditions: Ca9-22, light or radiation study
Ca9-22 [3] = experiment: Antiinvasive activity against human Ca9-22 cells assessed as cell invasion at 2 uM preincubated for 2 hrs followed by 0.5 Jcm'-2 UVA irradiation measured after 22 hrs by boyden chamber assay relative to control; format: functional
[4] = target: Epidermal growth factor receptor (Homo sapiens) (UniProt P00533); experiment: Inhibition of phosphorylated EGFR level in human Ca9-22 cells at 2 uM preincubated for 2 hrs followed by 0.5 Jcm'-2 UVA irradiation by Western blot analysis; format: cell-based
Ca9-22 [5] = experiment: Inhibition of phosphorylated ERK level in human Ca9-22 cells at 2 uM preincubated for 2 hrs followed by 0.5 Jcm'-2 UVA irradiation by Western blot analysis; format: cell-based
[6] = target: T1, Epidermal growth factor receptor (Homo sapiens) (UniProt P04626+P00533+Q15303+P21860); experiment: Inhibition of EGFR/ERK signalling in human Ca9-22 cells assessed as reduction in MMP2 expression at 2 uM preincubated for 2 hrs followed by 0.5 Jcm'-2 UVA irradiation by Western blot analysis; format: cell-based
[7] = target: T1, Epidermal growth factor receptor (Homo sapiens); experiment: Inhibition of EGFR/ERK signalling in human Ca9-22 cells assessed as reduction in MMP9 expression at 2 uM preincubated for 2 hrs followed by 0.5 Jcm'-2 UVA irradiation by Western blot analysis; format: cell-based
Ca9-22 [8] = experiment: Increase in TIMP3 expression in human Ca9-22 cells at 2 uM preincubated for 2 hrs followed by 0.5 Jcm'-2 UVA irradiation by Western blot analysis; format: functional, cell-based
[9] = Cytotoxicity against human Ca9-22 cells assessed as inhibition of cell survival at 2 uM preincubated for 2 hrs followed by 0.5 Jcm'-2 UVA irradiation measured after 24 hrs by MTT assay relative to control; format: cell-based; conditions: read-out: INH
Ca9-22 [10] = experiment: Anti-metastatic activity against human Ca9-22 cells assessed as increase in syndecan-1 mRNA expression at 2 uM preincubated for 2 hrs followed by 0.5 Jcm'-2 UVA irradiation measured after 8 hrs by qRT-PCR method; format: functional, cell-based
Ca9-22 [11] = experiment: Anti-metastatic activity against human Ca9-22 cells assessed as increase in TIMP3 mRNA expression at 2 uM preincubated for 2 hrs followed by 0.5 Jcm'-2 UVA irradiation measured after 8 hrs by qRT-PCR method; format: functional, cell-based
Ca9-22 [12] = experiment: Anti-metastatic activity against human Ca9-22 cells assessed as reduction in heparanase mRNA expression at 2 uM preincubated for 2 hrs followed by 0.5 Jcm'-2 UVA irradiation measured after 8 hrs by qRT-PCR method; format: functional, cell-based
[13] = target: T1, Epidermal growth factor receptor (Homo sapiens); experiment: Inhibition of EGFR/ERK signalling in human Ca9-22 cells assessed as reduction in MMP2 mRNA expression at 2 uM preincubated for 2 hrs followed by 0.5 Jcm'-2 UVA irradiation measured after 8 hrs by qRT-PCR method; format: cell-based
[14] = target: T1, Epidermal growth factor receptor (Homo sapiens); experiment: Inhibition of EGFR/ERK signalling in human Ca9-22 cells assessed as reduction in MMP9 mRNA expression at 2 uM preincubated for 2 hrs followed by 0.5 Jcm'-2 UVA irradiation measured after 8 hrs by qRT-PCR method; format: cell-based

Sequence of Epidermal growth factor receptor (Homo sapiens) (UniProt P00533) (P00533 whole entry): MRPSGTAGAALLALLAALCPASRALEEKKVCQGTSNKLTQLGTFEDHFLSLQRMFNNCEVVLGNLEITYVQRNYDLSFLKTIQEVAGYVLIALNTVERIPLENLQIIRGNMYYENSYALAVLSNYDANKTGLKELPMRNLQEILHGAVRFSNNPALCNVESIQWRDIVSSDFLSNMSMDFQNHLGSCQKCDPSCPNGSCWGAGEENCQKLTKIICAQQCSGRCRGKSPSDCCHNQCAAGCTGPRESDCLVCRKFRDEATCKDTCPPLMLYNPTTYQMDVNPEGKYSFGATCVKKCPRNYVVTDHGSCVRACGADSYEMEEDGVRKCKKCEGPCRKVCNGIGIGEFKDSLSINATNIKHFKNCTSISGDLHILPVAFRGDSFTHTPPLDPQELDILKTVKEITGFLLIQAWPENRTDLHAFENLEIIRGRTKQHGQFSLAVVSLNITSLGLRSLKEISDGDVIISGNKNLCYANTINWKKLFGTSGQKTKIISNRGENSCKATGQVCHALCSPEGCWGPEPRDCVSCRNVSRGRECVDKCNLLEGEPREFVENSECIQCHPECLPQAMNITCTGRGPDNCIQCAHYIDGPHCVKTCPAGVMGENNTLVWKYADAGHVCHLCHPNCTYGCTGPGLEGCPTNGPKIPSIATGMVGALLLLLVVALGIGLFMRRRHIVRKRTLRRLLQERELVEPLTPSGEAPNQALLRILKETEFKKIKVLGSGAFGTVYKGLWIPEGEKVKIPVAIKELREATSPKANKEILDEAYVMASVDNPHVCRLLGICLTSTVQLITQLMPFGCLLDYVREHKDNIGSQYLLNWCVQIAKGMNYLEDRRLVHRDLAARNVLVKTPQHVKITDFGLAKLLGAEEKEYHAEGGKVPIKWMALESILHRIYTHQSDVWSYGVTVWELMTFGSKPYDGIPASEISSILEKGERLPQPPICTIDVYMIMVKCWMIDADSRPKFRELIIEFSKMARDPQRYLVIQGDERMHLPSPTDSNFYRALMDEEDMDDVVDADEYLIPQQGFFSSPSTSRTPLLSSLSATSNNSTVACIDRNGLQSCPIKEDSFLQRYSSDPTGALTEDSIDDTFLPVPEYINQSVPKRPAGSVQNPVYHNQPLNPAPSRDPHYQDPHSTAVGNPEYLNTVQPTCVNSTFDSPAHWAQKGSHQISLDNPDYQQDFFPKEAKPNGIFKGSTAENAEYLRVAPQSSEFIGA

SMILES: COc1ccc2c(c1)nnn2-c1ccc(-c2nc3ccccc3s2)cc1C
- viability at 24 h, 5 µM [1]: 79.6%
- inhibition at 2 µM (Ca9-22 [2]): 18.5%
- Activity (Ca9-22 [3]): 75.9%

SMILES: COc1ccc2nc(-c3ccc(-n4nnc5ccccc54)c(C)c3)sc2c1
- viability at 24 h, 5 µM [1]: 82.1%

SMILES: Cc1cc(-c2nc3ccc(C(F)(F)F)cc3s2)ccc1-n1nnc2ccccc21
- viability at 24 h, 5 µM [1]: 89.4%

SMILES: FC(F)(F)c1ccc2nc(-c3ccc(-n4nnc5ccccc54)cc3)sc2c1
- viability at 24 h, 5 µM [1]: 91.8%

SMILES: c1ccc2sc(-c3ccc(-n4nnc5ccccc54)cc3)nc2c1
- viability at 24 h, 5 µM [1]: 95.5%

SMILES: COc1ccc2c(c1)nnn2-c1ccc(-c2nc3ccccc3s2)cc1
- viability at 24 h, 5 µM [1]: 104%

SMILES: CCc1ccc2nc(-c3ccc(-n4nnc5cc(OC)ccc54)c(C)c3)sc2c1
- viability at 24 h, 5 µM [1]: 73.1%
- inhibition at 2 µM (Ca9-22 [2]): 31.1%
- Activity (Ca9-22 [3]): 70%

SMILES: COc1ccc2c(c1)nnn2-c1ccc(-c2nc3ccc(C(F)(F)F)cc3s2)cc1
- viability at 24 h, 5 µM [1]: 105%

SMILES: COc1ccc2c(c1)nnn2-c1ccc(-c2nc3ccc(C(F)(F)F)cc3s2)cc1C
- viability at 24 h, 5 µM [1]: 113%

SMILES: CCc1ccc2nc(-c3ccc(-n4nnc5cc(OC)ccc54)cc3)sc2c1
- viability at 24 h, 5 µM [1]: 114%

SMILES: COc1ccc2c(c1)nnn2-c1ccc(-c2nc3ccc(OC)cc3s2)cc1C
- viability at 24 h, 5 µM [1]: 63.3%

SMILES: CCc1ccc2nc(-c3ccc(-n4nnc5ccccc54)c(C)c3)sc2c1
- viability at 24 h, 5 µM [1]: 50.2%
- inhibition at 2 µM (Ca9-22 [2]): 70.1%
- Activity (Ca9-22 [3]): 47%
- inhibition [4]: Active
- inhibition (Ca9-22 [5]): Active
- inhibition [6]: Active
- inhibition [7]: Active
- Activity (Ca9-22 [8]): Active

SMILES: COc1ccc2c(c1)nnn2-c1ccc(-c2nc3ccc(OC)cc3s2)cc1
- viability at 24 h, 5 µM [1]: 81.1%
- inhibition at 2 µM (Ca9-22 [2]): 51.7%
- Activity (Ca9-22 [3]): 108.6%

SMILES: CCc1ccc2nc(-c3ccc(-n4nnc5ccccc54)cc3)sc2c1
- viability at 24 h, 5 µM [1]: 109%

SMILES: Cc1cc(-c2nc3ccccc3s2)ccc1-n1nnc2ccccc21
- viability at 24 h, 5 µM [1]: 48.6%
- inhibition at 2 µM (Ca9-22 [2]): 45.8%
- Activity (Ca9-22 [3]): 47.6%
- inhibition [4]: Active
- inhibition (Ca9-22 [5]): Active
- inhibition [6]: Active
- inhibition [7]: Active
- Activity (Ca9-22 [8]): Active

SMILES: COc1ccc2nc(-c3ccc(-n4nnc5ccccc54)cc3)sc2c1
- viability at 24 h, 5 µM [1]: 44.1%
- cytotoxicity at 24 h, 2 µM [9]: 20%
- inhibition at 2 µM (Ca9-22 [2]): 68.7%
- Activity (Ca9-22 [3]): 38.9%
- Activity (Ca9-22 [10]): Active
- Activity (Ca9-22 [11]): Active
- Activity (Ca9-22 [12]): Active
- inhibition [13]: Active
- inhibition [14]: Active
- inhibition [4]: Active
- inhibition (Ca9-22 [5]): Active
- inhibition [6]: Active
- inhibition [7]: Active
- Activity (Ca9-22 [8]): Active
